# Test results: PMC11876601 (Molecular Systems Biology, 2025)
# Columns and labels:
# STK4 = test system: STK4; design: method as in Klaeger et al. (2017); details: STK4, 4 cell line mix lysate, Kinobeads y, ref Klaeger et al. (2017); cited from earlier work
# PKN3 = test system: PKN3; design: method as in Reinecke et al. (2023); details: PKN3, 5 cell line mix lysate, Kinobeads ε, ref Reinecke et al. (2023), cited from earlier work
# EIF3J = details: 5 cell line mix lysate, Kinobeads ε, ref Reinecke et al. (2023), cited from earlier work
# PTK6 = test system: PTK6; design: method as in Reinecke et al. (2023); details: PTK6, 5 cell line mix lysate, Kinobeads ε, ref Reinecke et al. (2023), cited from earlier work
# PIK3C2A = PIK3C2A (Homo sapiens, UniProt O00443); assay: biochemical
# Chain of PIK3C2A (O00443 whole entry): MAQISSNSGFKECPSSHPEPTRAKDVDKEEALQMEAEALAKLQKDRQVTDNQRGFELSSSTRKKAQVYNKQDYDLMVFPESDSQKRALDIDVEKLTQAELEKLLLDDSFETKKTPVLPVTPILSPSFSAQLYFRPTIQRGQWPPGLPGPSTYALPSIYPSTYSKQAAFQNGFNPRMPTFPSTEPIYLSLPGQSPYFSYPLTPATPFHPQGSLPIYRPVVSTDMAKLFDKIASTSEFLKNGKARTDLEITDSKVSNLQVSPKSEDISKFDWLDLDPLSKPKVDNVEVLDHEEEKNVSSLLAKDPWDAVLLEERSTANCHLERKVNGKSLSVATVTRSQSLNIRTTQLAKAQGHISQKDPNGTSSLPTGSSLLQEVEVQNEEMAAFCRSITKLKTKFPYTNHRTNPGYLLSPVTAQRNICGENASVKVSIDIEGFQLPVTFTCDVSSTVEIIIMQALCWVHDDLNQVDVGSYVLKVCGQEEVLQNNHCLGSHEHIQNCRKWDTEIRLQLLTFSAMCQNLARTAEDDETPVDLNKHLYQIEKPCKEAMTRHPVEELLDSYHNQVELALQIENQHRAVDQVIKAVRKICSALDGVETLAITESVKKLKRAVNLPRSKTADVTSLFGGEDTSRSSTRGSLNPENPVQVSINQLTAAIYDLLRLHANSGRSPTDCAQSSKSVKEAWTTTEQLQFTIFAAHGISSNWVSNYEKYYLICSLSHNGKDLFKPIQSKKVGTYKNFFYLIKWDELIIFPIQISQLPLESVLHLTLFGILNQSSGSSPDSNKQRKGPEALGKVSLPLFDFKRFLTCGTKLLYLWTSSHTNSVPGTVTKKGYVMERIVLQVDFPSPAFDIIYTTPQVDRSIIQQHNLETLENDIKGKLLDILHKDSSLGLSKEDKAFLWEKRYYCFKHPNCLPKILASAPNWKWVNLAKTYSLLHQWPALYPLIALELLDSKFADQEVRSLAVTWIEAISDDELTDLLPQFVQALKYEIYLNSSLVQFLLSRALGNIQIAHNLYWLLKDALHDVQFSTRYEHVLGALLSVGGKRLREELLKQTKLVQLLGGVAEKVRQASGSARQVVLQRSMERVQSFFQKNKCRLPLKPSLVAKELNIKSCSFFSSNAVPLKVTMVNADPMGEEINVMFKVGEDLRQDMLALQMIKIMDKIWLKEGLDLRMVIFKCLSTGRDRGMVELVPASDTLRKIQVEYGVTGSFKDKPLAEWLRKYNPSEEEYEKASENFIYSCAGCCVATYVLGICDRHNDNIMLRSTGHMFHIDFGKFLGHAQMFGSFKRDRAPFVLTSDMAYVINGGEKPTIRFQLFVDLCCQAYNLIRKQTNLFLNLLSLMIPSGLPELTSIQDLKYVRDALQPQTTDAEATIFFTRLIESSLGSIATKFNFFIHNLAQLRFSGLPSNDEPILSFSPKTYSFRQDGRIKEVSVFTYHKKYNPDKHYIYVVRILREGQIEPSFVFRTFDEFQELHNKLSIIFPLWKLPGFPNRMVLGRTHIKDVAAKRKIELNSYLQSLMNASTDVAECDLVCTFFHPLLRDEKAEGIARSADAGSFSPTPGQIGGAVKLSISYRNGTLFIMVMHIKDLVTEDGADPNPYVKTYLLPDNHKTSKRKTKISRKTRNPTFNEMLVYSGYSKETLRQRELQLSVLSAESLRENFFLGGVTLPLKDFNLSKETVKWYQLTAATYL
# Protocol: (§1) This was followed by incubation with Kinobeads ε (17.5 µl of settled beads) for 30 min at 4 °C to enrich kinases. […] Enriched proteins were reduced with 50 mM DTT in 8 M urea, 40 mM Tris-HCl, pH 7.4 for 30 min at room temperature, and alkylated with 55 mM chloroacetamide. After reducing the urea concentration to 1–2 M, proteins were digested with trypsin at 37 °C for 16 h. Subsequently, eluted peptides were desalted using SepPak tC18 µElution plates (Waters), freeze-dried by vacuum centrifugation, and stored at −20 °C.
# For LC-MS/MS, dried peptides were reconstituted in 0.1% formic acid and analyzed on a Dionex Ultimate3000 nano HPLC (Thermo Scientific) coupled to an Orbitrap Fusion Tribrid mass spectrometer (Thermo Scientific), which was run in data-dependent mode. […]
# Oxidized methionine and N-terminal acetylation were set as variable modification, and cysteine carbamidomethylation was set as fixed modification. Label-free quantification (LFQ) and match-between-runs were enabled. […]
# Proteins were filtered by potential contaminants, reversed hits and proteins identified only by site. Residual binding of proteins was calculated from LFQ intensities as the ratio between drug doses and vehicle. […] Only kinases quantified with at least 4 unique peptides in the vehicle experiment were considered. […]
# GSKA = target: T1, GSKA (Homo sapiens, UniProt P49840); assay: Kinobeads competition pulldown in AsPC-1 lysate; type: binding; details: read-out: KDapp
# T1 construct: endogenous in cells; host or cells: AsPC-1 lysate
# T1 sequence (P49840 whole entry): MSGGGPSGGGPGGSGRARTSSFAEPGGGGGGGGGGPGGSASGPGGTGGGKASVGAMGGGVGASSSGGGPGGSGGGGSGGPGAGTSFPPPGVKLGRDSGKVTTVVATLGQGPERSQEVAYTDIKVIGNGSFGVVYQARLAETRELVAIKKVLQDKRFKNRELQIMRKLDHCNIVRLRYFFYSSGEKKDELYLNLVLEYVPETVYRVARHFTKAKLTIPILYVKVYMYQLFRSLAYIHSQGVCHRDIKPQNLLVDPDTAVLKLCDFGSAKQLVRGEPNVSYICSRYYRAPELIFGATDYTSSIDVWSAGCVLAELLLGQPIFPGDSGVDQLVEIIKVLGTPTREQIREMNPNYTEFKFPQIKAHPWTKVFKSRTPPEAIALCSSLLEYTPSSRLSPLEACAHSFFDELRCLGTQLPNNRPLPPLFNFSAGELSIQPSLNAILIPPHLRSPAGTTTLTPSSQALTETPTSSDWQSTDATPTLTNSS
# Protocol: as §1
# (§2) For LC-MS/MS, dried peptides were reconstituted in 0.1% formic acid and analyzed on a Dionex Ultimate3000 nano HPLC (Thermo Scientific) coupled to an Orbitrap Fusion Tribrid mass spectrometer (Thermo Scientific), which was run in data-dependent mode. Peptides were first delivered to a trap column (100 µm × 2 cm, packed in-house with Reprosil-Gold C18 ODS-3 5 µm resin, Dr. Maisch, Ammerbuch) and subsequently washed with solvent A0 (0.1% formic acid in HPLC grade water) at 5 µl/min for 10 min. […] For MS2, up to 12 peptide precursors were isolated (isolation width of 1.2 Th) and subjected to HCD fragmentation using 30% normalized collision energy. […] The duration of dynamic exclusion was set to 30 s.
# (§3) Oxidized methionine and N-terminal acetylation were set as variable modification, and cysteine carbamidomethylation was set as fixed modification. Label-free quantification (LFQ) and match-between-runs were enabled. All searches were performed with 1% PSM and protein FDR.
# (§4) Proteins were filtered by potential contaminants, reversed hits and proteins identified only by site. Residual binding of proteins was calculated from LFQ intensities as the ratio between drug doses and vehicle. […] Only kinases quantified with at least 4 unique peptides in the vehicle experiment were considered. Potential targets were further curated through manual inspection of dose-dependent reduction in MS/MS and unique peptide counts.
# ACVR2 (Homo sapiens) = target: T2, ACVR2 (Homo sapiens); assay: Kinobeads competition pulldown in AsPC-1 lysate; type: binding; details: read-out: KDapp
# T2 construct: endogenous in cells; host or cells: AsPC-1 lysate
# T2 sequence (Q04771 21-509): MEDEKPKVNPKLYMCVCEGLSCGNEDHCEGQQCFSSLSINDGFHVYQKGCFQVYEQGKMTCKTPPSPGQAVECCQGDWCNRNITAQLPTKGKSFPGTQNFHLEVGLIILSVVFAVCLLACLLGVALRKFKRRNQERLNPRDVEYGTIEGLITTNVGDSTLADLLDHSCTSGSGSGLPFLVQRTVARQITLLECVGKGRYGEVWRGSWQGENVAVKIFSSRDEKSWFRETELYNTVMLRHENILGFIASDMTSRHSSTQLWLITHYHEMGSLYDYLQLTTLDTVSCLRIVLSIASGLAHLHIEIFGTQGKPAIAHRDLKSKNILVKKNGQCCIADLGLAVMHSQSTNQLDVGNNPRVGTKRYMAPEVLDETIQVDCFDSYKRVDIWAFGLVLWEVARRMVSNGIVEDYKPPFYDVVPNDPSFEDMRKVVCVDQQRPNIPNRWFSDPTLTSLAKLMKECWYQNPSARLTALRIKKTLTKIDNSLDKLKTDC
# Protocol: as §1, §2, §3, §4
# ACVR1 = target: T3, ACVR1 (Homo sapiens, UniProt Q04771); assay: Kinobeads competition pulldown in AsPC-1 lysate; type: binding
# T3 construct: endogenous in cells; host or cells: AsPC-1 lysate
# T3 sequence (Q04771 21-509): as above
# Protocol: as §1, §2, §3, §4
smiles,measurement,setting,value
C[C@]12O[C@H](C[C@]1(O)CO)n1c3ccccc3c3c4c(c5c6ccccc6n2c5c31)CNC4=O [Lestaurtinib],EC50,STK4,59.4 nM
COc1cc(N2CCC(N3CCN(C)CC3)CC2)ccc1Nc1ncc(Cl)c(Nc2ccccc2P(C)(C)=O)n1 [Brigatinib],EC50,PKN3,38500 nM
same,pKDapp,PKN3,4.41
same,Kd,PKN3; read-out: KDapp,38500 nM
same,Kd,EIF3J; read-out: KDapp,434 nM
same,EC50,EIF3J,434 nM
same,pKDapp,EIF3J,6.36
same,EC50,PTK6,85.9 nM
same,pKDapp,PTK6,7.38
same,Kd,PTK6; read-out: KDapp,41.5 nM
C[C@@H]1COCCN1c1cc(-c2ccnn2C)c2ccnc(-c3ccn[nH]3)c2n1 [Elimusertib],EC50,PIK3C2A,936 nM
same,Kd,"PIK3C2A; KDapp, AsPC-1 lysate",426 nM
Nc1nn2cc(F)cnc2c1C(=O)Nc1cncc(F)c1N1CCC(C(=O)N2CCN(C3COC3)CC2)CC1 [Gartisertib],Kd,GSKA,< 10 nM
CNCc1ccc(-c2cc(-c3nc(-c4ccc(S(=O)(=O)C(C)C)cc4)cnc3N)on2)cc1 [Berzosertib],Kd,ACVR2 (Homo sapiens),< 1 nM
same,Kd,"ACVR1; AsPC-1 lysate, read-out: KDapp",0.83 nM
same,EC50,ACVR1; Kinobeads residual binding curve,2.11 nM
